According to patent publication US12398140B2, “Substituted pyrrolo [2,3-d]pyrimidines for treating familial dysautonomia” (PTC THERAPEUTICS, INC., priority 2019, dated 2025):

system: Elongator complex protein 1 (ELPI, also referred to as IKBKAP); assay: IKBKAP-HTRF assay (IKBKAP protein in lysates of FD patient-derived fibroblasts); assay type: cell-based, human; conditions: FD patient-derived fibroblasts GM04589, 48 hours, 7-point concentration curve
Description: The assay is used for the quantitative determination of Elongator complex protein 1 (ELPI, also referred to as IKBKAP) concentration in cell lysates using the HTRF® (Homogeneous Time-Resolved Fluorescence) technology. IKBKAP is detected in a sandwich HTRF assay by use of an anti-IKAP antibody labeled with a donor and an anti-IKAP antibody labeled with an acceptor.
Cells were thawed and incubated in DMEM-10% FBS for 72 hours. Cells were trypsinized, counted, and re-suspended to a concentration of 50,000 cells/ml in DMEM-10% FBS. A 199 μL aliquot of the cell suspensions were plated at 10,000 cells per well in a 96 well microtiter plate and incubated for 3 to 5 hours. […] Test compounds were serially diluted 3.16-fold in 100% DMSO to generate a 7-point concentration curve. A 1 μL aliquot of 200× compound solution was transferred to cell-containing wells, and cells were incubated for 48 hours in a cell culture incubator (37° C., 5% CO2, 100% relative humidity). Triplicate samples were set up for each compound concentration. After 48 hours, the supernatant was removed from the cells and 50 μL of the 1×LB4 lysis buffer, containing protease inhibitors, was added to the cells and incubated with shaking at room temperature for 1 hour. A 36 μL aliquot of this lysate was subsequently transferred to the 384-well plate containing 4 μL of the antibody solution (1:50 dilution of anti IKAP d2 and anti-IKAP K(9+8) in detection buffer). The 384-well plate was then centrifuged for 1 minute to bring the solutions to the bottom of the plate and incubated overnight at 4° C. Fluorescence for each well of the plate at 665 nm and 620 nm was measured was on the EnVision plate reader (Perkin Elmer). The ΔF for each sample is calculated by:
[formula] wherein Signal is the normalized fluorescence for each sample well and Blank is the average normalized average fluorescence for the Blank control wells.
The maximum fold increase (MFI) in IKBKAP protein abundance for compounds of Formula (I) or a form thereof relative to the vehicle control are provided in Table 1. MFI was calculated by dividing the ΔF value for each sample well by the sample ΔF for the vehicle control wells.
The EC2x for IKBKAP protein expression obtained from the 7-point concentration curve generated for each test compound according to the protocol in Biological Example 1 are also provided in Table 1. The term “EC2x for IKBKAP protein expression” is defined as the concentration of test compound that is effective in producing two times the amount of IKBKAP protein in a FD patient cell compared to the amount produced from the DMSO vehicle control.

**Q.** For `Cl.NCCc1cc2c(NCc3ccco3)nc(Cl)nc2[nH]1` [Cpd 8, 6-(2-aminoethyl)-2-chloro-N-[(furan-2-yl)methyl]-7H-pyrrolo[2,3-d]pyrimidin-4-amine hydrochloride], which “EC2x for IKBKAP protein expression (concentration producing two times the amount of IKBKAP protein vs DMSO vehicle control)” value is on record?
**A.** *** (between >0.02 μM and ≤0.5 μM is indicated by three stars (***))

**Q.** And the “MFI (maximum fold increase in IKBKAP protein abundance relative to the vehicle control)” value?
**A.** *** (between >2.9 and ≤3.9 is indicated by three stars (***))

**Q.** For `C[C@H](N)Cc1[nH]c2nc(Br)nc(NCc3ccco3)c2c1F` [Cpd 62, 6-[(2S)-2-aminopropyl]-2-bromo-5-fluoro-N-[(furan-2-yl)methyl]-7H-pyrrolo[2,3-d]pyrimidin-4-amine], which “EC2x for IKBKAP protein expression (concentration producing two times the amount of IKBKAP protein vs DMSO vehicle control)” value is on record?
**A.** **** (between >0.005 μM and ≤0.02 μM is indicated by four stars (****))

**Q.** What about the “MFI (maximum fold increase in IKBKAP protein abundance relative to the vehicle control)” value of the same compound?
**A.** ***** (>4.9 is indicated by five stars (*****))

**Q.** With `C[C@H](N)Cc1cc2c(NCc3nccs3)nc(Cl)nc2[nH]1.Cl` [Cpd 22, 6-[(2S)-2-aminopropyl]-2-chloro-N-[(1,3-thiazol-2-yl)methyl]-7H-pyrrolo[2,3-d]pyrimidin-4-amine hydrochloride] as the compound, how does the “EC2x for IKBKAP protein expression (concentration producing two times the amount of IKBKAP protein vs DMSO vehicle control)” value read?
**A.** **** (between >0.005 μM and ≤0.02 μM is indicated by four stars (****))

**Q.** And the “MFI (maximum fold increase in IKBKAP protein abundance relative to the vehicle control)” value?
**A.** ***** (>4.9 is indicated by five stars (*****))

**Q.** How did the “EC2x for IKBKAP protein expression (concentration producing two times the amount of IKBKAP protein vs DMSO vehicle control)” value turn out when `CC(C)[C@H](N)Cc1[nH]c2nc(Cl)nc(NCc3ccncc3)c2c1F.Cl.Cl` [Cpd 15, 6-[(2R)-2-amino-3-methylbutyl]-2-chloro-5-fluoro-N-[(pyridin-4-yl)methyl]-7H-pyrrolo[2,3-d]pyrimidin-4-amine dihydrochloride] was run?
**A.** *** (between >0.02 μM and ≤0.5 μM is indicated by three stars (***))

**Q.** What about the “MFI (maximum fold increase in IKBKAP protein abundance relative to the vehicle control)” value of the same compound?
**A.** **** (between >3.9 and ≤4.9 is indicated by four stars (****))

**Q.** For `C[C@H](N)Cc1[nH]c2nc(Cl)nc(NCc3ccco3)c2c1Br.Cl` [Cpd 19, 6-[(2S)-2-aminopropyl]-5-bromo-2-chloro-N-[(furan-2-yl)methyl]-7H-pyrrolo[2,3-d]pyrimidin-4-amine hydrochloride], which “EC2x for IKBKAP protein expression (concentration producing two times the amount of IKBKAP protein vs DMSO vehicle control)” value is on record?
**A.** **** (between >0.005 μM and ≤0.02 μM is indicated by four stars (****))

**Q.** What about the “MFI (maximum fold increase in IKBKAP protein abundance relative to the vehicle control)” value of the same compound?
**A.** **** (between >3.9 and ≤4.9 is indicated by four stars (****))

**Q.** Which results are given for `CNCCc1cc2c(NCc3ccco3)nc(Cl)nc2[nH]1.Cl` [Cpd 3, 2-chloro-N-[(furan-2-yl)methyl]-6-[2-(methylamino)ethyl]-7H-pyrrolo[2,3-d]pyrimidin-4-amine hydrochloride]?
**A.** EC2x for IKBKAP protein expression (concentration producing two times the amount of IKBKAP protein vs DMSO vehicle control): *** (between >0.02 μM and ≤0.5 μM is indicated by three stars (***)); MFI (maximum fold increase in IKBKAP protein abundance relative to the vehicle control): ***** (>4.9 is indicated by five stars (*****))

**Q.** For `C[C@H](N)Cc1c(F)c2c(NCc3cccnc3)nc(Cl)nc2n1C.Cl.Cl` [Cpd 57, 6-[(2S)-2-aminopropyl]-2-chloro-5-fluoro-7-methyl-N-[(pyridin-3-yl)methyl]-7H-pyrrolo[2,3-d]pyrimidin-4-amine dihydrochloride], which “EC2x for IKBKAP protein expression (concentration producing two times the amount of IKBKAP protein vs DMSO vehicle control)” value is on record?
**A.** * (An EC2x>1 μM is indicated by one star (*))

**Q.** And the “MFI (maximum fold increase in IKBKAP protein abundance relative to the vehicle control)” value?
**A.** * (An MFI≤1.9 is indicated by one star (*))

**Q.** With `C[C@H](N)Cc1c(F)c2c(NCc3ccccn3)nc(Cl)nc2n1C.Cl.Cl` [Cpd 55, 6-[(2S)-2-aminopropyl]-2-chloro-5-fluoro-7-methyl-N-[(pyridin-2-yl)methyl]-7H-pyrrolo[2,3-d]pyrimidin-4-amine dihydrochloride] as the compound, how does the “EC2x for IKBKAP protein expression (concentration producing two times the amount of IKBKAP protein vs DMSO vehicle control)” value read?
**A.** * (An EC2x>1 μM is indicated by one star (*))

**Q.** And the “MFI (maximum fold increase in IKBKAP protein abundance relative to the vehicle control)” value?
**A.** * (An MFI≤1.9 is indicated by one star (*))

**Q.** With `Cl.NCCCc1[nH]c2nc(Cl)nc(NCc3ccco3)c2c1F` [Cpd 2, 6-(3-aminopropyl)-2-chloro-5-fluoro-N-[(furan-2-yl)methyl]-7H-pyrrolo[2,3-d]pyrimidin-4-amine hydrochloride] as the compound, how does the “EC2x for IKBKAP protein expression (concentration producing two times the amount of IKBKAP protein vs DMSO vehicle control)” value read?
**A.** *** (between >0.02 μM and ≤0.5 μM is indicated by three stars (***))

**Q.** And the “MFI (maximum fold increase in IKBKAP protein abundance relative to the vehicle control)” value?
**A.** *** (between >2.9 and ≤3.9 is indicated by three stars (***))

**Q.** For `CNC(C)Cc1cc2c(NCc3ccco3)nc(Cl)nc2[nH]1.Cl` (stereo not drawn) [Cpd 4, 2-chloro-N-[(furan-2-yl)methyl]-6-[2-(methylamino)propyl]-7H-pyrrolo[2,3-d]pyrimidin-4-amine hydrochloride], which “EC2x for IKBKAP protein expression (concentration producing two times the amount of IKBKAP protein vs DMSO vehicle control)” value is on record?
**A.** *** (between >0.02 μM and ≤0.5 μM is indicated by three stars (***))

**Q.** What about the “MFI (maximum fold increase in IKBKAP protein abundance relative to the vehicle control)” value of the same compound?
**A.** **** (between >3.9 and ≤4.9 is indicated by four stars (****))

**Q.** `C[C@H](N)Cc1c(F)c2c(NCc3nccs3)nc(Cl)nc2n1C.Cl` [Cpd 38, 6-[(2S)-2-aminopropyl]-2-chloro-5-fluoro-7-methyl-N-[(1,3-thiazol-2-yl)methyl]-7H-pyrrolo[2,3-d]pyrimidin-4-amine hydrochloride] was tested. Which “EC2x for IKBKAP protein expression (concentration producing two times the amount of IKBKAP protein vs DMSO vehicle control)” value did it give?
**A.** *** (between >0.02 μM and ≤0.5 μM is indicated by three stars (***))

**Q.** And the “MFI (maximum fold increase in IKBKAP protein abundance relative to the vehicle control)” value?
**A.** ***** (>4.9 is indicated by five stars (*****))

**Q.** What does the source list for `CC[C@H](N)Cc1[nH]c2nc(Cl)nc(NCc3nccs3)c2c1F.Cl` [Cpd 59, 6-[(2S)-2-aminobutyl]-2-chloro-5-fluoro-N-[(1,3-thiazol-2-yl)methyl]-7H-pyrrolo[2,3-d]pyrimidin-4-amine hydrochloride]?
**A.** EC2x for IKBKAP protein expression (concentration producing two times the amount of IKBKAP protein vs DMSO vehicle control): *** (between >0.02 μM and ≤0.5 μM is indicated by three stars (***)); MFI (maximum fold increase in IKBKAP protein abundance relative to the vehicle control): ***** (>4.9 is indicated by five stars (*****))

**Q.** How did the “EC2x for IKBKAP protein expression (concentration producing two times the amount of IKBKAP protein vs DMSO vehicle control)” value turn out when `C[C@H](N)Cc1[nH]c2nc(Cl)nc(NCc3cccs3)c2c1F.Cl` [Cpd 40, 6-[(2S)-2-aminopropyl]-2-chloro-5-fluoro-N-[(thiophen-2-yl)methyl]-7H-pyrrolo[2,3-d]pyrimidin-4-amine hydrochloride] was run?
**A.** **** (between >0.005 μM and ≤0.02 μM is indicated by four stars (****))

**Q.** And the “MFI (maximum fold increase in IKBKAP protein abundance relative to the vehicle control)” value?
**A.** ***** (>4.9 is indicated by five stars (*****))

**Q.** Which results are given for `CNCCc1cc2c(NCc3nccs3)nc(Cl)nc2[nH]1.Cl` [Cpd 5, 2-chloro-6-[2-(methylamino)ethyl]-N-[(1,3-thiazol-2-yl)methyl]-7H-pyrrolo[2,3-d]pyrimidin-4-amine hydrochloride]?
**A.** EC2x for IKBKAP protein expression (concentration producing two times the amount of IKBKAP protein vs DMSO vehicle control): *** (between >0.02 μM and ≤0.5 μM is indicated by three stars (***)); MFI (maximum fold increase in IKBKAP protein abundance relative to the vehicle control): ***** (>4.9 is indicated by five stars (*****))

**Q.** What does the source list for `CN(C)CCc1cc2c(NCc3ccco3)nc(Cl)nc2[nH]1` [Cpd 7, 2-chloro-6-[2-(dimethylamino)ethyl]-N-[(furan-2-yl)methyl]-7H-pyrrolo[2,3-d]pyrimidin-4-amine]?
**A.** EC2x for IKBKAP protein expression (concentration producing two times the amount of IKBKAP protein vs DMSO vehicle control): * (An EC2x>1 μM is indicated by one star (*)); MFI (maximum fold increase in IKBKAP protein abundance relative to the vehicle control): * (An MFI≤1.9 is indicated by one star (*))

**Q.** Which results are given for `CC[C@H](N)Cc1[nH]c2nc(Cl)nc(NCc3cccs3)c2c1F.Cl` [Cpd 58, 6-[(2S)-2-aminobutyl]-2-chloro-5-fluoro-N-[(thiophen-2-yl)methyl]-7H-pyrrolo[2,3-d]pyrimidin-4-amine hydrochloride]?
**A.** EC2x for IKBKAP protein expression (concentration producing two times the amount of IKBKAP protein vs DMSO vehicle control): *** (between >0.02 μM and ≤0.5 μM is indicated by three stars (***)); MFI (maximum fold increase in IKBKAP protein abundance relative to the vehicle control): **** (between >3.9 and ≤4.9 is indicated by four stars (****))

**Q.** Which results are given for `Cc1c(C[C@H](C)N)[nH]c2nc(Cl)nc(NCc3ccco3)c12.Cl` [Cpd 33, 6-[(2S)-2-aminopropyl]-2-chloro-N-[(furan-2-yl)methyl]-5-methyl-7H-pyrrolo[2,3-d]pyrimidin-4-amine hydrochloride]?
**A.** EC2x for IKBKAP protein expression (concentration producing two times the amount of IKBKAP protein vs DMSO vehicle control): ***** (≤0.005 μM is indicated by five stars (*****)); MFI (maximum fold increase in IKBKAP protein abundance relative to the vehicle control): ***** (>4.9 is indicated by five stars (*****))

**Q.** What does the source list for `C[C@H](N)Cc1cc2c(NCc3ccoc3)nc(Cl)nc2[nH]1.Cl` [Cpd 30, 6-[(2S)-2-aminopropyl]-2-chloro-N-[(furan-3-yl)methyl]-7H-pyrrolo[2,3-d]pyrimidin-4-amine hydrochloride]?
**A.** EC2x for IKBKAP protein expression (concentration producing two times the amount of IKBKAP protein vs DMSO vehicle control): *** (between >0.02 μM and ≤0.5 μM is indicated by three stars (***)); MFI (maximum fold increase in IKBKAP protein abundance relative to the vehicle control): ***** (>4.9 is indicated by five stars (*****))
